Here are results for two compounds from article PMC8145938, “Triphenilphosphonium Analogs of Chloramphenicol as Dual-Acting Antimicrobial and Antiproliferating Agents” (Antibiotics, 2021).

The subject of experiment [1] is Escherichia coli C600rif/pIB55-1. In words: MIC determination, CHL resistant E. coli strains. The class given is cell-based. The text has this: (§1) Standard laboratory strains of Bacillus subtilis subs. subtilis Cohn 1872, stains BR151, and 168, Staphylococcus aureus subsp. aureus Rosenbach 1884 strains JCM 2151 and entry MC#144 (from the Microorganisms Collection of the Moscow State University), Listeria monocytogenes Pirie 1940, Mycobacterium smegmatis Lehmann and Neumann 1899 (MC#377), and Escherichia coli Castellani and Chalmers 1919, strain JW5503 (with the deletion of tolC gene), which are resistant to the chloramphenicol strains, J53rif, C600rif/pIB55-1, C600rif/pIP162-1, and C600recA naI, were used.
(§2) The MICs for CAM-Cn-TPP and Cn-TPP were determined by Mueller-Hinton broth microdilution, as recommended by CLSI in the Methods for Dilution Antimicrobial Susceptibility Tests for Bacteria that Grow Aerobically, Approved Standard, 9th ed., CLSI document M07-A9, using in-house-prepared panels. The compounds were diluted in a 96-well microtiter plate to final concentrations ranging from 0.5 to 360 μM in a 250-µL aliquot of the bacterial suspension, followed by incubation at 37 °C or 30 °C for 18 h. […] The bacterial growth was observed visually alongside OD measurements. The experiments were carried out in triplicate.

The test system of experiment [2] is Escherichia coli C600rif/pIP162-1. The experiment in a line: MIC determination, CHL resistant E. coli strains. The class given is cell-based.
Text: as §1, §2

In the next experiment the test system is Escherichia coli J53rif. In words: MIC determination, CHL resistant E. coli strains. The format is cell-based.
Text: as §1, §2

Experiment [3] has as its system Escherichia coli C600recA naI. The experiment in a line: MIC determination, CHL resistant E. coli strains. The format is cell-based. To be noted: C600RECANAI.
Text: as §1, §2

The subject of the next experiment is VA13. The experiment in a line: MTT assay growth inhibition. The class given is cell-based. As to conditions: VA-13, 72 h, read-out: 50% growth inhibition concentration (GI50). As to the method: (§3) The cytotoxicity of the tested substances was tested using the MTT (3-(4,5-dimethylthiazol-2-yl)-2,5-diphenyltetrazolium bromide) assay, with some modifications, and 2500 cells per well for the MCF7, HEK293T, and A549 cell lines or 4000 cells per well for the VA-13 cell line were plated in 135 µL of DMEM-F12 media (Gibco, Waltham, MA, USA) in a 96-well plate and incubated in the 5% CO2 incubator for first 16 h, without treatment. Then, 15 µL of media-DMSO solutions of the tested substances was added to the cells (the final DMSO concentrations in the media were 1% or less) and treated cells for 72 h with 25 nM–50 µM (eight dilutions) of our substances (triplicate each), and serial DMSO dilutions and doxorubicin were used as controls. The MTT reagent (Paneco LLC, Moscow, Russia) was then added to cells to a final concentration of 0.5 g/L (10× stock solution in PBS was used) and incubated for 2.5 h at 37 °C in the incubator under an atmosphere of 5% CO2. The MTT solution was then discarded, and 140 µL of DMSO (PharmaMed LLC, Krasnodarsky Krai, Russia) was added. The plates were swayed on a shaker (60 rpm) to dissolve the formazan. The absorbance was measured using a microplate reader (VICTOR X5 Light Plate Reader, PerkinElmer, Waltham, MA, USA) at a wavelength of 565 nm (in order to measure formazan concentration). The results were used to construct a dose-response graph and to estimate the CC50 value.

The next experiment relates to HEK293T. The experiment in a line: MTT assay growth inhibition. The class given is cell-based. As to conditions: Homo sapiens, HEK-293T, 72 h, read-out: 50% growth inhibition concentration (GI50). As for the experimental part:
as §3

A further experiment concerns MCF7. In words: MTT assay growth inhibition. The format is cell-based. As to conditions: Homo sapiens, 72 h, read-out: 50% growth inhibition concentration (GI50). As to the method:
as §3

A further experiment relates to A549. In words: MTT assay growth inhibition. The class given is cell-based, human. To be noted: Homo sapiens, A549; MTT, 72 h; read-out: 50% growth inhibition concentration (GI50). As to the method:
as §3

Another experiment deals with E. coli ∆tolC-CAT. The experiment in a line: MIC determination, broth microdilution. The class given is cell-based. As to conditions: Escherichia coli. As to the method:
(§4) E. coli ∆tolC CHL-resistant strain harboring plasmid encoding for chloramphenicol acetyltransferase (cat) (pCA24N-LacZ) and the control E. coli ∆tolC strain was used to evaluate the inhibitory effect of the compounds. CHL-resistant strains of B. subtilis pHT01-cat and B. subtilis pHT01-cfr were prepared by means of a transformation of a B. subtilis 168 strain with plasmids harboring the cat and cfr genes (chloramphenicol-florfenicol resistance) gene. The cfr gene encodes for the methyltransferase, which catalyzes the methylation of […] in the 23S rRNA and causes resistance to a variety of ribosome-targeting antibiotics that bind in the A site of the bacterial ribosome.
(§5) A standard laboratory strain of E. coli JW5503, with the deletion of the tolC gene, referred to here as the ∆tolC strain, was used to obtain the ∆tolC pCA24N-LacZ strain by means of transformation with the plasmid pCA24N-LacZ-harboring chloramphenicol acetyltransferase (cat) gene.
as §2

For another experiment, the system named is E. coli ∆tolC. In words: MIC determination, broth microdilution. The class given is cell-based. To be noted: Escherichia coli. As for the experimental part: as §4, §5, §2
The test system of a further experiment is Bacillus subtilis. In words: MIC determination, broth microdilution. The format is cell-based.
Text: as §1, §2

A further experiment has as its system Mycobacterium smegmatis. The experiment in a line: MIC determination, broth microdilution. The class given is cell-based. As to conditions: Mycolicibacterium smegmatis.
Text: as §1, §2

The subject of the next experiment is B. subtilis pHT01-cfr. The experiment in a line: MIC determination, broth microdilution. The format is cell-based. To be noted: Bacillus subtilis, PHT01CFR. As to the method: as §4
(§6) A standard laboratory strain of B. subtilis 168 was used to obtain the CHL-resistant strains, B. subtilis pHT01-CAT and B. subtilis pHT01-cfr, by means of transformation with the corresponding plasmids. Competent cell preparation and transformation procedures were conducted, as reported in [74, 75]. The desired colonies were selected at 10 µg/mL of CHL for B. subtilis pHT01 and 5 µg/mL or 3.2 µg/mL of CHL for B. subtilis pHT01-cfr.
as §2

In another experiment the test system is B. subtilis pHT01-cat. The experiment in a line: MIC determination, broth microdilution. As to conditions: Bacillus subtilis, PHT01CAT. The class given is cell-based. As for the experimental part:
as §4, §6, §2

A further experiment has as its system Staphylococcus aureus. In words: MIC determination, broth microdilution. The format is cell-based.
Text: as §1
(§7) S. aureus was grown in Bacto Tryptic Soy Broth, L. monocytogenes in Brain Heart Infusion Broth, and E. coli in LB. Bacterial cells were grown at 30 °C or 37 °C in the appropriate medium at a 140 rpm shaking frequency.
as §2

The next experiment deals with Listeria monocytogenes. In words: MIC determination, broth microdilution. The format is cell-based.
Text: as §1, §7, §2

Experiment [4] concerns E. coli BW25113 ΔtolC pDualrep2 reporter strain. In words: pDualrep2 double fluorescent reporter assay on agar plate. The format is cell-based. To be noted: for inhibition of cell growth (inhibition zone) of the reporter strain: 10 mM, 1.5 μL spotted on agar lawn; for induction of reporters (Katushka2S: ribosome stalling; RFP: DNA damage): compound spotted on agar lawn, overnight 37 °C. The text has this: Next, we tested the effects of CAM-C10-TPP and CAM-C14-TPP in bacterial cells using an E. coli ∆tolC-based reporter system, which is designed to screen inhibitors targeting either protein synthesis or DNA replication. In this reporter system, the gene of the far-red fluorescent protein, katushka2S, is inserted downstream of the genetically modified tryptophan attenuator, making it possible to express Katushka2S only upon exposure to ribosome-stalling compounds (Figure 2B, CHL and ERY, red pseudocolor rings).
Reporter strain […] [71] ΔtolC (BW25113) pDualrep2 was used, as previously described. The tested antibiotics, CAM-C10-TPP (10 mM, 1.5 μL), CAM-C14-TPP (10 mM, 1.5 μL), C10-TPP (10 mM, 1.5 μL), C14-TPP (10 mM, 1.5 μL), CAM (10 mM, 1.5 μL), CAM-Ac (10 mM, 1.5 μL), chloramphenicol (CHL, 2 mM, 1 μL), erythromycin (Ery, 7 mM, 1 μL), and levofloxacin (Lev, 70 nM, 1 μL), were applied to an agar plate that already contained a lawn of the reporter strain. After being incubated overnight at 37 °C, the plate was scanned by ChemiDoc (Bio-Rad) in the modes, “Cy3-blot” for RFP and “Cy5-blot” for Katushka2S.

Each structure is given as a SMILES string.

For the compound `CCCCCCCCCC[P+](c1ccccc1)(c1ccccc1)c1ccccc1` [C10-TPP, decyl(triphenyl)phosphonium bromide], the MIC in [1] was found to be 67 µM; in experiment [2], 93 µM; against Escherichia coli J53rif, 110 µM; in experiment [3], 136 µM; with E. coli ∆tolC-CAT, 3 µM; against E. coli ∆tolC, 3 µM. Further, the MIC is 2 µM against Bacillus subtilis; less than 2 µM in the experiment on Mycobacterium smegmatis; 0.8 µM with B. subtilis pHT01-cfr; 1.6 µM against B. subtilis pHT01-cat; 2 µM against Staphylococcus aureus; 5 µM in the experiment on Listeria monocytogenes. Moreover, the GI50 amounted to 270 ± 50 nM with VA13, 80 ± 10 nM in the experiment with HEK293T, 210 ± 30 nM in the experiment with MCF7 and 70 ± 10 nM with A549. Moreover, the “inhibition of cell growth (inhibition zone) of the reporter strain” value in experiment [4] is “inhibit bacterial cell growth”. Also, the “induction of reporters (Katushka2S: ribosome stalling; RFP: DNA damage)” value in experiment [4] is listed as “do not induce either of the two reporters”.

In the case of `CCCCCCCCCCCCCC[P+](c1ccccc1)(c1ccccc1)c1ccccc1` [C14-TPP, tetradecyl(triphenyl)phosphonium bromide], the GI50 with VA13 was found to be 70 ± 50 nM; in the experiment on HEK293T, 30 ± 20 nM; in the experiment with MCF7, 20 ± 10 nM; in the experiment on A549, 25 ± 9 nM. Besides, the MIC came out at 6 µM with E. coli ∆tolC-CAT; 1.6 µM in the experiment on E. coli ∆tolC; 8 µM against Bacillus subtilis; 4 µM against Mycobacterium smegmatis; 0.8 µM against B. subtilis pHT01-cfr; 1.6 µM in the experiment on B. subtilis pHT01-cat. Besides, the results for the MIC in the experiment with Staphylococcus aureus and against Listeria monocytogenes were 1.6 µM and 2 µM, respectively. The “inhibition of cell growth (inhibition zone) of the reporter strain” value in [4] is listed as “inhibit bacterial cell growth”. In addition, in [4], the “induction of reporters (Katushka2S: ribosome stalling; RFP: DNA damage)” value is “do not induce either of the two reporters”.
